From patent US8614327B2 (Vertex Pharmaceuticals Incorporated, priority 2004, dated 2013)
pEC50: −log10 of the molar value.

Molecular target: T1, ΔF508-CFTR (Homo sapiens, UniProt P13569, DEL508-508)
T1 construct: expressed in transfected cells
Assay: Membrane potential optical (FRET/VIPR) assay, identification of potentiator compounds
Assay type: cell-based
Conditions: Table 3, assay not given; for % Activity: relative efficacy
In short: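 Double-addition potentiator screen: compound delivered in gluconate-substituted Cl^--free medium, membrane potential followed via CC2-DMPE/DiSBAC2(3) FRET on VIPR. Cells were ΔF508-CFTR-expressing NIH3T3 mouse fibroblasts, held 2 h at 37° C. then 24 h at 27° C. before assay.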

T1 sequence (P13569 with tags, fused parts or gaps DEL508-508): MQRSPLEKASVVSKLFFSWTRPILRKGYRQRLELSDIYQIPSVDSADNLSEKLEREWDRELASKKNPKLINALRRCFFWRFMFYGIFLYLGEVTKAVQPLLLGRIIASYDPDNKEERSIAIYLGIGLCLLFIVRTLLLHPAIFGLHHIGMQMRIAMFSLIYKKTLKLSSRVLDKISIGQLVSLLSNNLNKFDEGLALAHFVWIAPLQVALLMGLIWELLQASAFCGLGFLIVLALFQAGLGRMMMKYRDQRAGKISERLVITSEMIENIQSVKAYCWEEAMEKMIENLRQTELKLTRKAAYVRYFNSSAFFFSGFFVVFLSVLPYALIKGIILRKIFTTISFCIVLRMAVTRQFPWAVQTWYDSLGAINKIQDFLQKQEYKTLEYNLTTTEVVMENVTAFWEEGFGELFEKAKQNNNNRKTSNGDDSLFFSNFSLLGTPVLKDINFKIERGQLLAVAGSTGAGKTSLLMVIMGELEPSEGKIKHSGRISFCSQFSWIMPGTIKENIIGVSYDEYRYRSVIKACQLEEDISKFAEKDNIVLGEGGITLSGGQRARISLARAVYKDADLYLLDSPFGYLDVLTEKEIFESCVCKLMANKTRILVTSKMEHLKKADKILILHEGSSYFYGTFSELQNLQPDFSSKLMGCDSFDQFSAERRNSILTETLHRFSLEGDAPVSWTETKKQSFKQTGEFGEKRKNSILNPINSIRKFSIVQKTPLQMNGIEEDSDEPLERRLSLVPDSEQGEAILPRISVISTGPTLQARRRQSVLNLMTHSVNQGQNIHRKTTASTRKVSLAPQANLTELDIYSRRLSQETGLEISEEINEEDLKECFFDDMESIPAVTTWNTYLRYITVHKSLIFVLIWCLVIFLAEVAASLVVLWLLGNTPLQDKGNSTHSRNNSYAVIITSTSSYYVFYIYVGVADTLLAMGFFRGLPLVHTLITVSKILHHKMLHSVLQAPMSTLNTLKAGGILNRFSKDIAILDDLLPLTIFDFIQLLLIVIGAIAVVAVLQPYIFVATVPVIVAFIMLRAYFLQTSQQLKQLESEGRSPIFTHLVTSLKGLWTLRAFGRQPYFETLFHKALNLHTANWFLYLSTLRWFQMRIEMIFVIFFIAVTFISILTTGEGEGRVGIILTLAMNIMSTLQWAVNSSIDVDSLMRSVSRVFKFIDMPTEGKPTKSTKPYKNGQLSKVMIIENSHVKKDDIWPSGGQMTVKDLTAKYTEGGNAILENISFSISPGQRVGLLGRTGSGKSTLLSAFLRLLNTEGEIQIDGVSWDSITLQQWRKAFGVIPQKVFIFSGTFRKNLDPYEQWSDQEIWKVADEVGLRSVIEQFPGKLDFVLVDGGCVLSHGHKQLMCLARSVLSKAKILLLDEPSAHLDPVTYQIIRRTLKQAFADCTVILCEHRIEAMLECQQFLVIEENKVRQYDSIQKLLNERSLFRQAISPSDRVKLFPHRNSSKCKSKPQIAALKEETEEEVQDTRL

Row | pEC50 | % Activity | SMILES
1 | > 5.00 | ++ (between 25% to 100%) | Cc1ccc(C)c(NC(=O)c2c[nH]c3ccccc3c2=O)c1 [Compound 434, N-(2,5-dimethylphenyl)-4-oxo-1H-quinoline-3-carboxamide]
2 | > 5.00 | ++ (between 25% to 100%) | O=C(Nc1cccnc1Oc1ccccc1F)c1c[nH]c2ccccc2c1=O [Compound 435, N-[2-(2-fluorophenoxy)-3-pyridyl]-4-oxo-1H-quinoline-3-carboxamide]
3 | > 5.00 | ++ (between 25% to 100%) | COc1ccc(-c2ccccc2NC(=O)c2c[nH]c3ccccc3c2=O)cc1OC [Compound 436, N-[2-(3,4-dimethoxyphenyl)phenyl]-4-oxo-1H-quinoline-3-carboxamide]
4 | 4.22 to 4.60 | + (<25%) | O=C(Nc1ccc2c(c1)OCO2)c1c[nH]c2ccccc2c1=O [Compound 437, N-benzo[1,3]dioxol-5-yl-4-oxo-1H-quinoline-3-carboxamide]
5 | > 5.00 | ++ (between 25% to 100%) | CC(C)(C)c1cc(C(C)(C)C)c(C(F)F)cc1NC(=O)c1c[nH]c2ccccc2c1=O [Compound 438, N-[5-(difluoromethyl)-2,4-ditert-butyl-phenyl]-4-oxo-1H-quinoline-3-carboxamide]
6 | > 5.00 | ++ (between 25% to 100%) | COc1ccc(NC(=O)c2c[nH]c3ccccc3c2=O)cc1 [Compound 439, N-(4-methoxyphenyl)-4-oxo-1H-quinoline-3-carboxamide]
7 | > 5.00 | ++ (between 25% to 100%) | O=C(Nc1ccc2c(c1)OC(F)(F)C(F)(F)O2)c1c[nH]c2ccccc2c1=O [Compound 440, N-(2,2,3,3-tetrafluoro-2,3-dihydrobenzo[b][1,4]dioxin-6-yl)-1,4-dihydro-4-oxoquinoline-3-carboxamide]
8 |  | ++ (between 25% to 100%) | CS(=O)(=O)Nc1cc(NC(=O)c2c[nH]c3ccccc3c2=O)cc(C(F)(F)F)c1 [Compound 441, N-[3-methylsulfonylamino-5-(trifluoromethyl)phenyl]-4-oxo-1H-quinoline-3-carboxamide]
9 | 4.22 to 4.60 | + (<25%) | O=C(Nc1cccc(S(=O)(=O)N2CCCCC2)c1)c1c[nH]c2ccccc2c1=O [Compound 442, 4-oxo-N-[3-(1-piperidylsulfonyl)phenyl]-1H-quinoline-3-carboxamide]
10 | 4.22 to 4.60 | + (<25%) | O=C(Nc1ccc2nccnc2c1)c1c[nH]c2ccccc2c1=O [Compound 443, 4-oxo-N-quinoxalin-6-yl-1H-quinoline-3-carboxamide]
11 | > 5.00 | ++ (between 25% to 100%) | COC(=O)c1cc(NC(=O)c2c[nH]c3ccccc3c2=O)ccc1C(C)(C)C [Compound 444, 5-[(4-oxo-1H-quinolin-3-yl)carbonylamino]-2-tert-butyl-benzoic acid methyl ester]
12 | > 5.00 | +++ (>100%) | C=C(C)c1ccccc1NC(=O)c1c[nH]c2ccccc2c1=O [Compound 445, N-(2-isopropenylphenyl)-4-oxo-1H-quinoline-3-carboxamide]
13 | 4.22 to 4.60 | + (<25%) | O=C(Nc1ccc2c(c1)S(=O)(=O)C=C2)c1c[nH]c2ccccc2c1=O [Compound 446, N-(1,1-dioxobenzothiophen-6-yl)-4-oxo-1H-quinoline-3-carboxamide]
14 | 4.60 to 5.00 | ++ (between 25% to 100%) | N#Cc1cccc(NC(=O)c2c[nH]c3ccccc3c2=O)c1 [Compound 447, N-(3-cyanophenyl)-4-oxo-1H-quinoline-3-carboxamide]
15 | > 5.00 | ++ (between 25% to 100%) | Cc1cccc(NC(=O)c2c[nH]c3ccccc3c2=O)c1 [Compound 449, N-(m-tolyl)-4-oxo-1H-quinoline-3-carboxamide]
16 | 4.60 to 5.00 | ++ (between 25% to 100%) | CC(O)c1ccc(NC(=O)c2c[nH]c3ccccc3c2=O)cc1 (centres unmarked) [Compound 450, N-[4-(1-hydroxyethyl)phenyl]-4-oxo-1H-quinoline-3-carboxamide]
17 | > 5.00 | ++ (between 25% to 100%) | CCc1cc(C#N)ccc1NC(=O)c1c[nH]c2ccccc2c1=O [Compound 451, N-(4-cyano-2-ethyl-phenyl)-4-oxo-1H-quinoline-3-carboxamide]
18 | > 5.00 | ++ (between 25% to 100%) | C=Cc1ccc(NC(=O)c2c[nH]c3ccccc3c2=O)cc1 [Compound 452, 4-oxo-N-(4-vinylphenyl)-1H-quinoline-3-carboxamide]
19 | > 5.00 | ++ (between 25% to 100%) | Nc1cc(NC(=O)c2c[nH]c3ccccc3c2=O)ccc1Cl [Compound 453, N-(3-amino-4-chloro-phenyl)-4-oxo-1H-quinoline-3-carboxamide]

Row | pEC50 | % Activity | SMILES
20 | 4.22 to 4.60 | + (<25%) | Cc1ccc(-c2ccccc2)cc1NC(=O)c1c[nH]c2ccccc2c1=O [Compound 454, N-(2-methyl-5-phenyl-phenyl)-4-oxo-1H-quinoline-3-carboxamide]
21 | > 5.00 | ++ (between 25% to 100%) | O=C(Nc1ccc(C23CC4CC(CC(C4)C2)C3)cc1)c1c[nH]c2ccccc2c1=O [Compound 455, N-[4-(1-adamantyl)phenyl]-4-oxo-1H-quinoline-3-carboxamide]
22 | > 5.00 | ++ (between 25% to 100%) | O=C(Nc1cccc(SC(F)(F)F)c1)c1c[nH]c2ccccc2c1=O [Compound 456, 4-oxo-N-[3-(trifluoromethylsulfanyl)phenyl]-1H-quinoline-3-carboxamide]
23 | 4.22 to 4.60 | + (<25%) | O=C(Nc1ccc(N2CCOCC2)cc1)c1c[nH]c2ccccc2c1=O [Compound 457, N-(4-morpholinophenyl)-4-oxo-1H-quinoline-3-carboxamide]
24 | > 5.00 | ++ (between 25% to 100%) | CC(C)(C)c1ccc(NC(=O)c2c[nH]c3ccccc3c2=O)cc1OCCO [Compound 458, N-[3-(2-hydroxyethoxy)-4-tert-butyl-phenyl]-4-oxo-1H-quinoline-3-carboxamide]
25 | > 5.00 | ++ (between 25% to 100%) | Cc1ccccc1NC(=O)c1c[nH]c2ccccc2c1=O [Compound 459, N-(o-tolyl)-4-oxo-1H-quinoline-3-carboxamide]
26 | > 5.00 | ++ (between 25% to 100%) | CCCCOC(=O)NCC(C)(C)c1ccc(NC(=O)c2c[nH]c3ccccc3c2=O)cc1 [Compound 460, [2-methyl-2-[4-[(4-oxo-1H-quinolin-3-yl)carbonylamino]phenyl]-propyl]aminoformic acid butyl ester]
27 | > 5.00 | ++ (between 25% to 100%) | O=C(Nc1ccccc1-c1ccccc1)c1c[nH]c2ccccc2c1=O [Compound 461, 4-oxo-N-(2-phenylphenyl)-1H-quinoline-3-carboxamide]
28 |  | ++ (between 25% to 100%) | CCCc1ccc(NC(=O)c2c[nH]c3ccccc3c2=O)cc1N(C)C [Compound 462, N-(3-dimethylamino-4-propyl-phenyl)-4-oxo-1H-quinoline-3-carboxamide]
29 |  | ++ (between 25% to 100%) | CCc1ccc(NC(=O)c2c[nH]c3ccccc3c2=O)cc1 [Compound 463, N-(4-ethylphenyl)-4-oxo-1H-quinoline-3-carboxamide]
30 | > 5.00 | ++ (between 25% to 100%) | CC(C)(C)c1cc(C(C)(C)C)c(NC(=O)c2c[nH]c3cccc(O)c3c2=O)cc1O [Compound 464, 5-hydroxy-N-(5-hydroxy-2,4-ditert-butyl-phenyl)-4-oxo-1H-quinoline-3-carboxamide]
31 | > 5.00 | ++ (between 25% to 100%) | CC(C)(C)OC(=O)NCc1cc(NC(=O)c2c[nH]c3ccccc3c2=O)ccc1C(C)(C)C [Compound 465, [5-[(4-oxo-1H-quinolin-3-yl)carbonylamino]-2-tert-butyl-phenyl]methylaminoformic acid tert-butyl ester]
32 | > 5.00 | ++ (between 25% to 100%) | CC(C)c1cccc(C(C)C)c1NC(=O)c1c[nH]c2ccccc2c1=O [Compound 466, N-(2,6-diisopropylphenyl)-4-oxo-1H-quinoline-3-carboxamide]
33 | 4.22 to 4.60 | + (<25%) | O=C(Nc1ccc2c(c1)CCO2)c1c[nH]c2ccccc2c1=O [Compound 467, N-(2,3-dihydrobenzofuran-5-yl)-4-oxo-1H-quinoline-3-carboxamide]
34 | 4.22 to 4.60 | + (<25%) | Cn1cc(C(=O)Nc2ccccc2)c(=O)c2ccccc21 [Compound 468, 1-methyl-4-oxo-N-phenyl-1H-quinoline-3-carboxamide]
35 | > 5.00 | ++ (between 25% to 100%) | O=C(Nc1ccccc1-c1ccccc1)c1c[nH]c2cc(C(F)(F)F)ccc2c1=O [Compound 469, 4-oxo-N-(2-phenylphenyl)-7-(trifluoromethyl)-1H-quinoline-3-carboxamide]
36 | > 5.00 | ++ (between 25% to 100%) | O=C(Nc1ccc(Sc2ccccc2)cc1)c1c[nH]c2ccccc2c1=O [Compound 470, 4-oxo-N-(4-phenylsulfanylphenyl)-1H-quinoline-3-carboxamide]
37 | > 5.00 | ++ (between 25% to 100%) | CCCc1ccc(NC(=O)OC)cc1NC(=O)c1c[nH]c2ccccc2c1=O [Compound 471, [3-[(4-oxo-1H-quinoline-3-yl)carbonylamino]-4-propyl-phenyl]aminoformic acid methyl ester]
38 |  | ++ (between 25% to 100%) | CCOC(=O)Nc1ccc(CC)c(NC(=O)c2c[nH]c3ccccc3c2=O)c1 [Compound 472, [4-ethyl-3-[(4-oxo-1H-quinolin-3-yl)carbonylamino]phenyl]aminoformic acid ethyl ester]

Row | SMILES | pEC50 | % Activity
39 | CC(C)(C)c1ccc(NC(=O)c2c[nH]c3ccccc3c2=O)cc1 [Compound 448, 4-oxo-N-(4-tert-butylphenyl)-1H-quinoline-3-carboxamide] | > 5.00 | ++ (between 25% to 100%)
